Measurements from ChEMBL document CHEMBL3885881, “DrugMatrix”.

Organism: Rattus norvegicus
Assay: DrugMatrix - Regimen: Daily Repeat
Assay type: toxicity, organism-based, Sprague-Dawley
Set-up: regimen Daily Repeat, gender Male, age 6-8 weeks
Conditions: in vivo, po, route oral GAVAGE, […]; for ABSOLUTE BASOPHIL / ABSOLUTE EOSINOPHIL / ABSOLUTE LYMPHOCYTE / ABSOLUTE MONOCYTE / ABSOLUTE SEGMENTED NEUTROPHIL / BASOPHIL / EOSINOPHIL / ERYTHROCYTE COUNT / HEMATOCRIT / HEMOGLOBIN / LEUKOCYTE COUNT / LYMPHOCYTE / MEAN CORPUSCULAR HEMOGLOBIN / MEAN CORPUSCULAR HEMOGLOBIN CONCENTRATION / MEAN CORPUSCULAR VOLUME / MONOCYTE / NEUTROPHIL / NUCLEATED RED BLOOD CELLS / PLATELET COUNT: tissue Blood; for ALANINE AMINOTRANSFERASE / ALBUMIN / ALKALINE PHOSPHATASE / ASPARTATE AMINOTRANSFERASE / BLOOD UREA NITROGEN / CARBON DIOXIDE / CHLORIDE / CHOLESTEROL / CREATINE PHOSPHOKINASE / CREATININE / GLUCOSE / LACTATE DEHYDROGENASE / LIPASE / PHOSPHORUS / POTASSIUM / SODIUM / TOTAL BILIRUBIN / TOTAL PROTEIN / URIC ACID: tissue Plasma
[1] = 80 mg/kg, 120 h, dose level Low, time 5 day
[2] = 338 mg/kg, 72 h, dose level High, time 3 day
[3] = 338 mg/kg, 120 h, dose level High, time 5 day

CC(C)(Oc1ccc(C2CCCc3ccccc32)cc1)C(=O)O (centres undefined) [NAFENOPIN]
ABSOLUTE BASOPHIL [1]: 0 CELLS/uL
ABSOLUTE EOSINOPHIL [1]: 0 CELLS/uL
ABSOLUTE LYMPHOCYTE [1]: 12561 CELLS/uL
ABSOLUTE MONOCYTE [1]: 516.67 CELLS/uL
ABSOLUTE SEGMENTED NEUTROPHIL [1]: 1089 CELLS/uL
BASOPHIL [1]: 0%
EOSINOPHIL [1]: 0%
ERYTHROCYTE COUNT [1]: 5.43 x10E6/uL
HEMATOCRIT [1]: 32.67%
HEMOGLOBIN [1]: 12.23 G/DL
LEUKOCYTE COUNT [1]: 14.17 x10E3/uL
LYMPHOCYTE [1]: 88.67%
MEAN CORPUSCULAR HEMOGLOBIN [1]: 22.57 pg
MEAN CORPUSCULAR HEMOGLOBIN CONCENTRATION [1]: 37.5 G/DL
MEAN CORPUSCULAR VOLUME [1]: 60.17 fL
MONOCYTE [1]: 3.67%
NEUTROPHIL [1]: 7.67%
NUCLEATED RED BLOOD CELLS [1]: 0 /100WBC
PLATELET COUNT [1]: 828.67 x10E3/uL
ALANINE AMINOTRANSFERASE [1]: 61.67 u/L
ALBUMIN [1]: 5.07 G/DL
ALKALINE PHOSPHATASE [1]: 578 u/L
ASPARTATE AMINOTRANSFERASE [1]: 85.33 u/L
BLOOD UREA NITROGEN [1]: 14.33 mg/dL
CARBON DIOXIDE [1]: 32 mmol/L
CHLORIDE [1]: 97 MEQ/L
CHOLESTEROL [1]: 65.33 mg/dL
CREATINE PHOSPHOKINASE [1]: 403.67 u/L
CREATININE [1]: 0.25 mg/dL
GLUCOSE [1]: 148.67 mg/dL
LACTATE DEHYDROGENASE [1]: 257.33 u/L
LIPASE [1]: 9.67 u/L
PHOSPHORUS [1]: 13.43 mg/dL
POTASSIUM [1]: 6.96 MEQ/L
SODIUM [1]: 142.07 MEQ/L
TOTAL BILIRUBIN [1]: 0.13 mg/dL
TOTAL PROTEIN [1]: 6.07 G/DL
URIC ACID [1]: 1.23 mg/dL
ABSOLUTE BASOPHIL [2]: 0 CELLS/uL
ABSOLUTE EOSINOPHIL [2]: 40.33 CELLS/uL
ABSOLUTE LYMPHOCYTE [2]: 10009.33 CELLS/uL
ABSOLUTE MONOCYTE [2]: 484 CELLS/uL
ABSOLUTE SEGMENTED NEUTROPHIL [2]: 1499.67 CELLS/uL
BASOPHIL [2]: 0%
EOSINOPHIL [2]: 0.33%
ERYTHROCYTE COUNT [2]: 5.41 x10E6/uL
HEMATOCRIT [2]: 32.97%
HEMOGLOBIN [2]: 12.87 G/DL
LEUKOCYTE COUNT [2]: 12.03 x10E3/uL
LYMPHOCYTE [2]: 83.33%
MEAN CORPUSCULAR HEMOGLOBIN [2]: 23.77 pg
MEAN CORPUSCULAR HEMOGLOBIN CONCENTRATION [2]: 39.03 G/DL
MEAN CORPUSCULAR VOLUME [2]: 60.93 fL
MONOCYTE [2]: 4%
NEUTROPHIL [2]: 12.33%
NUCLEATED RED BLOOD CELLS [2]: 0 /100WBC
PLATELET COUNT [2]: 1008 x10E3/uL
ALANINE AMINOTRANSFERASE [2]: 113 u/L
ALBUMIN [2]: 4.73 G/DL
ALKALINE PHOSPHATASE [2]: 921 u/L
ASPARTATE AMINOTRANSFERASE [2]: 143 u/L
BLOOD UREA NITROGEN [2]: 13.67 mg/dL
CARBON DIOXIDE [2]: 22 mmol/L
CHLORIDE [2]: 104 MEQ/L
CHOLESTEROL [2]: 59.67 mg/dL
CREATINE PHOSPHOKINASE [2]: 584.33 u/L
CREATININE [2]: 0.7 mg/dL
GLUCOSE [2]: 143.67 mg/dL
LACTATE DEHYDROGENASE [2]: 415.33 u/L
LIPASE [2]: 10 u/L
PHOSPHORUS [2]: 12.27 mg/dL
POTASSIUM [2]: 6.14 MEQ/L
SODIUM [2]: 143.63 MEQ/L
TOTAL BILIRUBIN [2]: 0.2 mg/dL
TOTAL PROTEIN [2]: 5.63 G/DL
URIC ACID [2]: 1.23 mg/dL
ABSOLUTE BASOPHIL [3]: 0 CELLS/uL
ABSOLUTE EOSINOPHIL [3]: 38 CELLS/uL
ABSOLUTE LYMPHOCYTE [3]: 11719.67 CELLS/uL
ABSOLUTE MONOCYTE [3]: 400 CELLS/uL
ABSOLUTE SEGMENTED NEUTROPHIL [3]: 1175.67 CELLS/uL
BASOPHIL [3]: 0%
EOSINOPHIL [3]: 0.33%
ERYTHROCYTE COUNT [3]: 5.3 x10E6/uL
HEMATOCRIT [3]: 30.47%
HEMOGLOBIN [3]: 11.43 G/DL
LEUKOCYTE COUNT [3]: 13.33 x10E3/uL
LYMPHOCYTE [3]: 88%
MEAN CORPUSCULAR HEMOGLOBIN [3]: 21.6 pg
MEAN CORPUSCULAR HEMOGLOBIN CONCENTRATION [3]: 37.53 G/DL
MEAN CORPUSCULAR VOLUME [3]: 57.53 fL
MONOCYTE [3]: 3%
NEUTROPHIL [3]: 8.67%
NUCLEATED RED BLOOD CELLS [3]: 0 /100WBC
PLATELET COUNT [3]: 850.67 x10E3/uL
ALANINE AMINOTRANSFERASE [3]: 87 u/L
ALBUMIN [3]: 4.73 G/DL
ALKALINE PHOSPHATASE [3]: 891.33 u/L
ASPARTATE AMINOTRANSFERASE [3]: 88.67 u/L
BLOOD UREA NITROGEN [3]: 12.67 mg/dL
CARBON DIOXIDE [3]: 29 mmol/L
CHLORIDE [3]: 98 MEQ/L
CHOLESTEROL [3]: 96.67 mg/dL
CREATINE PHOSPHOKINASE [3]: 209.67 u/L
CREATININE [3]: 0.65 mg/dL
GLUCOSE [3]: 129.67 mg/dL
LACTATE DEHYDROGENASE [3]: 216.67 u/L
LIPASE [3]: 10 u/L
PHOSPHORUS [3]: 12.7 mg/dL
POTASSIUM [3]: 6.55 MEQ/L
SODIUM [3]: 143.43 MEQ/L
TOTAL BILIRUBIN [3]: 0.23 mg/dL
TOTAL PROTEIN [3]: 5.67 G/DL
URIC ACID [3]: 1.3 mg/dL
